The source made the active and inactive calls. The calls are words filed in the database; no cut-off is given here. Peptide text beside a SMILES is read from it. * marks the point of attachment. βNA = c1ccc2cc(N*)ccc2c1
Experiments:
[1] = test system: Escherichia coli; assay: Potentiation of erythromycin-induced antibacterial activity against Escherichia coli BW25113 assessed as erythromycin MIC at 32 ug/ml incubated for 18 hrs under aerobic condition in presence of EDTA by checkerboard titration assay; format: functional, organism-based; settings: dose 32.0 µg/ml
[2] = test system: Escherichia coli; assay: Antibacterial activity against Wild type Escherichia coli BW25113 assessed as inhibition of AcrB efflux pump by mesuring the glucose-induced nile red efflux at 200 uM preincubated with CCCP for 15 mins followed by compound addition after 15 mins nile red added and incubated for 3 hrs in shaker by fluorimetric analysis; format: functional, organism-based; settings: time 195.0 min
[3] = test system: Cell membrane; assay: Induction of outer membrane permeabilization in wild type Escherichia coli BW25113 assessed as increase in nitrocefin hydrolysis at 512 ug/ml measured for 30 mins in presence of CCCP by spectrophotometry analysis; format: subcellular; settings: dose 512.0 µg/ml
[4] = test system: Escherichia coli; assay: Potentiation of rifampicin-induced antibacterial activity against wild type Escherichia coli BW25113 assessed as rifampicin MIC at 256 ug/ml incubated for 18 hrs under aerobic condition by checkerboard titration assay (reference value: 16 ug/ml); format: functional; settings: dose 256 µg/ml
[5] = test system: Escherichia coli; assay: Potentiation of chloramphenicol-induced antibacterial activity against AcrB deficient Escherichia coli BW25113 assessed as chloramphenicol MIC at 256 ug/ml incubated for 18 hrs under aerobic condition by checkerboard titration assay (reference value: 2 ug/ml); format: functional; settings: dose 256 µg/ml
[6] = test system: Escherichia coli; assay: Potentiation of chloramphenicol-induced antibacterial activity against wild type Escherichia coli BW25113 assessed as chloramphenicol MIC at 128 ug/ml incubated for 18 hrs under aerobic condition by checkerboard titration assay (reference value: 16 ug/ml); format: functional; settings: dose 128 µg/ml
[7] = test system: Escherichia coli; assay: Potentiation of erythromycin-induced antibacterial activity against wild type Escherichia coli BW25113 assessed as fold reduction in erythromycin MIC at 128 ug/ml incubated for 18 hrs under aerobic condition by checkerboard titration assay relative to erythromycin MIC alone; format: functional; settings: dose 128 µg/ml
[8] = test system: Escherichia coli; assay: Potentiation of erythromycin-induced antibacterial activity against wild type Escherichia coli BW25113 assessed as erythromycin MIC at 256 ug/ml incubated for 18 hrs under aerobic condition by checkerboard titration assay (reference value: 128 ug/ml); format: functional; settings: dose 256 µg/ml
[9] = test system: Escherichia coli; assay: Potentiation of TPP-induced antibacterial activity against wild type Escherichia coli BW25113 assessed as TPP MIC at 128 ug/ml incubated for 18 hrs under aerobic condition by checkerboard titration assay (reference value: 1024 ug/ml); format: functional; settings: dose 128 µg/ml
[10] = test system: Escherichia coli; assay: Potentiation of erythromycin-induced antibacterial activity against wild type Escherichia coli BW25113 assessed as erythromycin MIC at 128 ug/ml incubated for 18 hrs under aerobic condition by checkerboard titration assay (reference value: 128 ug/ml); format: functional; settings: dose 128 µg/ml
[11] = test system: Escherichia coli; assay: Potentiation of chloramphenicol-induced antibacterial activity against AcrB deficient Escherichia coli BW25113 assessed as chloramphenicol MIC at 128 ug/ml incubated for 18 hrs under aerobic condition by checkerboard titration assay (reference value: 2 ug/ml); format: functional; settings: dose 128 µg/ml
[12] = test system: Cell membrane; assay: Disruption of inner membrane potential in wild type Escherichia coli BW25113 at 512 ug/ml preincubated for 10 mins followed by glucose stimulation and CCCP addition by DiOC2 probe based fluorimetric analysis; format: subcellular; settings: dose 512.0 µg/ml
[13] = test system: Escherichia coli; assay: Potentiation of TPP-induced antibacterial activity against AcrB deficient Escherichia coli BW25113 assessed as TPP MIC at 128 ug/ml incubated for 18 hrs under aerobic condition by checkerboard titration assay (reference value: 256 ug/ml); format: functional; settings: dose 128 µg/ml
[14] = test system: Escherichia coli; assay: Potentiation of TPP-induced antibacterial activity against wild type Escherichia coli BW25113 assessed as TPP MIC at 256 ug/ml incubated for 18 hrs under aerobic condition by checkerboard titration assay (reference value: 1024 ug/ml); format: functional; settings: dose 256 µg/ml
[15] = test system: Escherichia coli; assay: Antibacterial activity against wild type Escherichia coli BW25113 assessed as inhibition of bacterial growth at 256 ug/ml after 18 hrs by microtitre broth dilution assay; format: functional, organism-based; settings: dose 256.0 µg/ml
[16] = test system: Escherichia coli; assay: Potentiation of rifampicin-induced antibacterial activity against wild type Escherichia coli BW25113 assessed as rifampicin MIC at 128 ug/ml incubated for 18 hrs under aerobic condition by checkerboard titration assay (reference value: 16 ug/ml); format: functional; settings: dose 128 µg/ml
[17] = test system: Escherichia coli; assay: Potentiation of erythromycin-induced antibacterial activity against AcrB deficient Escherichia coli BW25113 assessed as erythromycin MIC at 256 ug/ml incubated for 18 hrs under aerobic condition by checkerboard titration assay (reference value: 32 ug/ml); format: functional; settings: dose 256 µg/ml
[18] = test system: Escherichia coli; assay: Potency index, ratio of A3 MIC to compound MIC for potentiation of erythromycin-induced antibacterial activity against Escherichia coli BW25113; format: functional
[19] = test system: Escherichia coli; assay: Potentiation of TPP-induced antibacterial activity against AcrB deficient Escherichia coli BW25113 assessed as TPP MIC at 256 ug/ml incubated for 18 hrs under aerobic condition by checkerboard titration assay (reference value: 256 ug/ml); format: functional; settings: dose 256 µg/ml
[20] = test system: Escherichia coli; assay: Potentiation of erythromycin-induced antibacterial activity against AcrB deficient Escherichia coli BW25113 assessed as erythromycin MIC at 128 ug/ml incubated for 18 hrs under aerobic condition by checkerboard titration assay (reference value: 32 ug/ml); format: functional; settings: dose 128 µg/ml
[21] = test system: Escherichia coli; assay: Potentiation of chloramphenicol-induced antibacterial activity against wild type Escherichia coli BW25113 assessed as chloramphenicol MIC at 256 ug/ml incubated for 18 hrs under aerobic condition by checkerboard titration assay (reference value: 16 ug/ml); format: functional; settings: dose 256 µg/ml
[22] = test system: Escherichia coli; assay: Antibacterial activity against AcrB deficient Escherichia coli BW25113 assessed as inhibition of bacterial growth at 256 ug/ml after 18 hrs by microtitre broth dilution assay; format: functional, organism-based; settings: dose 256.0 µg/ml
[23] = test system: Escherichia coli; assay: Potentiation of erythromycin-induced antibacterial activity against AcrB deficient Escherichia coli BW25113 assessed as erythromycin MIC at 200 ug/ml incubated for 18 hrs under aerobic condition by checkerboard titration assay (reference value: 32 ug/ml); format: functional; settings: dose 200 µg/ml
[24] = test system: Escherichia coli; assay: Potentiation of rifampicin-induced antibacterial activity against wild type Escherichia coli BW25113 assessed as rifampicin MIC at 200 ug/ml incubated for 18 hrs under aerobic condition by checkerboard titration assay (reference value: 16 ug/ml); format: functional; settings: dose 200 µg/ml
[25] = test system: Escherichia coli; assay: Potentiation of chloramphenicol-induced antibacterial activity against wild type Escherichia coli BW25113 assessed as chloramphenicol MIC at 200 ug/ml incubated for 18 hrs under aerobic condition by checkerboard titration assay (reference value: 16 ug/ml); format: functional; settings: dose 200 µg/ml
[26] = test system: Escherichia coli; assay: Potentiation of TPP-induced antibacterial activity against wild type Escherichia coli BW25113 assessed as TPP MIC at 200 ug/ml incubated for 18 hrs under aerobic condition by checkerboard titration assay (reference value: 1024 ug/ml); format: functional; settings: dose 200 µg/ml
[27] = test system: Escherichia coli; assay: Potentiation of erythromycin-induced antibacterial activity against wild type Escherichia coli BW25113 assessed as erythromycin MIC at 200 ug/ml incubated for 18 hrs under aerobic condition by checkerboard titration assay (reference value: 128 ug/ml); format: functional; settings: dose 200 µg/ml
[28] = test system: Escherichia coli; assay: Potentiation of chloramphenicol-induced antibacterial activity against AcrB deficient Escherichia coli BW25113 assessed as chloramphenicol MIC at 200 ug/ml incubated for 18 hrs under aerobic condition by checkerboard titration assay (reference value: 2 ug/ml); format: functional; settings: dose 200 µg/ml
[29] = test system: Escherichia coli; assay: Potentiation of TPP-induced antibacterial activity against AcrB deficient Escherichia coli BW25113 assessed as TPP MIC at 200 ug/ml incubated for 18 hrs under aerobic condition by checkerboard titration assay (reference value: 256 ug/ml); format: functional; settings: dose 200 µg/ml

Compound: CC(C)NCCOc1cc(C(N)=O)cc2ccccc12
- Activity [1]: Active
- Activity [2]: Active
- Activity [3]: inactive
- MIC [4]: 16 µg/mL
- MIC [5]: 2 µg/mL
- MIC [6]: 16 µg/mL
- fold change (FC) [7]: 8
- MIC [8]: 16 µg/mL
- MIC [9]: 1020 µg/mL
- MIC [10]: 16 µg/mL
- MIC [11]: 2 µg/mL
- Activity [12]: inactive
- MIC [13]: 256 µg/mL
- MIC [14]: 1020 µg/mL
- Activity [15]: inactive
- MIC [16]: 16 µg/mL
- MIC [17]: 32 µg/mL
- Ratio [18]: 16
- MIC [19]: 256 µg/mL
- MIC [20]: 32 µg/mL
- MIC [21]: 16 µg/mL
- Activity [22]: Active

Compound: N=C(N)NCCC[C@H](NC(=O)[C@@H](N)Cc1ccccc1)C(=O)Nc1ccc2ccccc2c1 [PABETAN] (H-Phe-Arg-βNA)
- MIC [23]: 16 µg/mL
- MIC [24]: 2 µg/mL
- MIC [25]: 2 µg/mL
- MIC [26]: 256 µg/mL
- MIC [27]: 16 µg/mL
- MIC [28]: 2 µg/mL
- MIC [29]: 256 µg/mL
